Test results: paper PMC10112504, “Novel 4-thiophenyl-pyrazole, pyridine, and pyrimidine derivatives as potential antitumor candidates targeting both EGFR and VEGFR-2; design, synthesis, biological evaluations, and in silico studies” (RSC Advances, 2023)

How the values were obtained:
A. flavus = assay: Antifungal activity, inhibition zone approach; format: cell-based, Aspergillus flavus; details: for A. flavus Diameter of inhibition zone (mm): Fungi; for antimicrobial activity with A. flavus, in words: authors' grading of Table 2 values, key not given; for A. flavus % Activity index: ketoconazole = 100
B. subtilis = assay: Antibacterial activity, inhibition zone approach; format: cell-based, Bacillus subtilis; details: for B. subtilis Diameter of inhibition zone (mm): Gram-positive bacteria; for antimicrobial activity with B. subtilis, in words: authors' grading of Table 2 values, key not given; for B. subtilis % Activity index: gentamicin = 100
EGFR = EGFR (Homo sapiens, UniProt P00533); assay: EGFR inhibitory activity, homogeneous luminescence release assay; format: biochemical; details: reference erlotinib; read-out: EGFR inhibition IC50
HepG-2 = assay: Anti-proliferative activity, SRB colorimetric assay; format: cell-based; details: for IC50: Homo sapiens, HepG2, HepG-2 cancer cell line, SRB assay, read-out: Cell lines (IC50 μM) HepG-2; for anti-proliferative activity against HepG-2, in words: authors' grading of Table 1 values, key not given
P. aeuroginosa = assay: Antibacterial activity, inhibition zone approach; format: cell-based, Pseudomonas aeuroginosa; details: for P. aeuroginosa Diameter of inhibition zone (mm): Gram-negative bacteria; for antimicrobial activity with P. aeuroginosa, in words: authors' grading of Table 2 values, key not given; for P. aeuroginosa % Activity index: gentamicin = 100
S. aureus = assay: Antibacterial activity, inhibition zone approach; format: cell-based, Staphylococcus aureus; details: for S. aureus Diameter of inhibition zone (mm): Gram-positive bacteria; for antimicrobial activity with S. aureus, in words: authors' grading of Table 2 values, key not given; for S. aureus % Activity index: gentamicin = 100
VEGFR-2 = VEGFR-2 (Homo sapiens, UniProt P35968); assay: VEGFR-2 inhibitory activity, homogeneous luminescence release assay; format: biochemical; details: reference sorafenib; read-out: VEGFR-2 inhibition IC50
Source text: […]. Briefly, these μM inhibitory concentrations recommend greatly the proposed rationale design for the investigated compounds to act as promising dual EGFR/VEGFR-2 inhibitors.

C. albicans = assay: Antifungal activity, inhibition zone approach; format: cell-based, Candida albicans; details: for C. albicans Diameter of inhibition zone (mm): Fungi; for antimicrobial activity with C. albicans, in words: authors' grading of Table 2 values, key not given; for C. albicans % Activity index: ketoconazole = 100
MCF-7 = assay: Anti-proliferative activity, SRB colorimetric assay; format: cell-based; details: for IC50: Homo sapiens, MCF7, MCF-7 cancer cell line, SRB assay, read-out: Cell lines (IC50 μM) MCF-7; for anti-proliferative activity against MCF-7, in words: authors' grading of Table 1 values, key not given
E. coli = assay: Antibacterial activity, inhibition zone approach; format: cell-based, Escherichia coli; details: for E. coli Diameter of inhibition zone (mm): Gram-negative bacteria; for antimicrobial activity with E. coli, in words: authors' grading of Table 2 values, key not given; for E. coli % Activity index: gentamicin = 100

Chain of EGFR (P00533 25-1210): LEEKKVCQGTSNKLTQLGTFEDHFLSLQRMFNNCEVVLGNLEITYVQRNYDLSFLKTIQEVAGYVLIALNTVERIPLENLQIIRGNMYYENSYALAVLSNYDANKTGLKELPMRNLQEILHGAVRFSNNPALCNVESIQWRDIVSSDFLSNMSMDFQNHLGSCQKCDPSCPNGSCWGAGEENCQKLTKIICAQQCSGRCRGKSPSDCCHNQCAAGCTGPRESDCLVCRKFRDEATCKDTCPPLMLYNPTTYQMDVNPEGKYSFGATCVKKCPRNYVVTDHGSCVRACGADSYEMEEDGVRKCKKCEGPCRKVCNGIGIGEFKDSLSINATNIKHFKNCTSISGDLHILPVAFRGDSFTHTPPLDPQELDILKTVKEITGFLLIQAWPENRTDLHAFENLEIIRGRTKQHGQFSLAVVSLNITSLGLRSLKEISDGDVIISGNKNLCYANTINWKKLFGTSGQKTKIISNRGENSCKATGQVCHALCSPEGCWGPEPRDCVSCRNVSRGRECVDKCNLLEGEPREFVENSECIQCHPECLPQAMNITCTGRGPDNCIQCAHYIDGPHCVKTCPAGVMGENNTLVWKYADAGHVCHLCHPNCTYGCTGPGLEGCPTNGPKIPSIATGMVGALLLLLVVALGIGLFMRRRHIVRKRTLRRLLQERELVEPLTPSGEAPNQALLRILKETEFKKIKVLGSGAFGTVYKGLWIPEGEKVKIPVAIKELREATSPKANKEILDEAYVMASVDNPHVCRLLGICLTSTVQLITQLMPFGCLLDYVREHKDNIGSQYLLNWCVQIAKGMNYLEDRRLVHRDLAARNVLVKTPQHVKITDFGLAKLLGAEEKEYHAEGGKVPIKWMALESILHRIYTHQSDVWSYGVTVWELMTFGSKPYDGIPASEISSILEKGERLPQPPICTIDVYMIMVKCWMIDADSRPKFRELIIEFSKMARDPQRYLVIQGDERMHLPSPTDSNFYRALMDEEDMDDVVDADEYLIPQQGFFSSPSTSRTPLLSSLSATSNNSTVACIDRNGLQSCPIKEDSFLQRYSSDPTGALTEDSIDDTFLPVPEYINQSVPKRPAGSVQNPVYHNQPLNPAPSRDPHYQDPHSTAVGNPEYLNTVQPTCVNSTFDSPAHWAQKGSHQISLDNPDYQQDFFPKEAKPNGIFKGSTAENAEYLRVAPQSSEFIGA
Chain of VEGFR-2 (P35968 20-1356): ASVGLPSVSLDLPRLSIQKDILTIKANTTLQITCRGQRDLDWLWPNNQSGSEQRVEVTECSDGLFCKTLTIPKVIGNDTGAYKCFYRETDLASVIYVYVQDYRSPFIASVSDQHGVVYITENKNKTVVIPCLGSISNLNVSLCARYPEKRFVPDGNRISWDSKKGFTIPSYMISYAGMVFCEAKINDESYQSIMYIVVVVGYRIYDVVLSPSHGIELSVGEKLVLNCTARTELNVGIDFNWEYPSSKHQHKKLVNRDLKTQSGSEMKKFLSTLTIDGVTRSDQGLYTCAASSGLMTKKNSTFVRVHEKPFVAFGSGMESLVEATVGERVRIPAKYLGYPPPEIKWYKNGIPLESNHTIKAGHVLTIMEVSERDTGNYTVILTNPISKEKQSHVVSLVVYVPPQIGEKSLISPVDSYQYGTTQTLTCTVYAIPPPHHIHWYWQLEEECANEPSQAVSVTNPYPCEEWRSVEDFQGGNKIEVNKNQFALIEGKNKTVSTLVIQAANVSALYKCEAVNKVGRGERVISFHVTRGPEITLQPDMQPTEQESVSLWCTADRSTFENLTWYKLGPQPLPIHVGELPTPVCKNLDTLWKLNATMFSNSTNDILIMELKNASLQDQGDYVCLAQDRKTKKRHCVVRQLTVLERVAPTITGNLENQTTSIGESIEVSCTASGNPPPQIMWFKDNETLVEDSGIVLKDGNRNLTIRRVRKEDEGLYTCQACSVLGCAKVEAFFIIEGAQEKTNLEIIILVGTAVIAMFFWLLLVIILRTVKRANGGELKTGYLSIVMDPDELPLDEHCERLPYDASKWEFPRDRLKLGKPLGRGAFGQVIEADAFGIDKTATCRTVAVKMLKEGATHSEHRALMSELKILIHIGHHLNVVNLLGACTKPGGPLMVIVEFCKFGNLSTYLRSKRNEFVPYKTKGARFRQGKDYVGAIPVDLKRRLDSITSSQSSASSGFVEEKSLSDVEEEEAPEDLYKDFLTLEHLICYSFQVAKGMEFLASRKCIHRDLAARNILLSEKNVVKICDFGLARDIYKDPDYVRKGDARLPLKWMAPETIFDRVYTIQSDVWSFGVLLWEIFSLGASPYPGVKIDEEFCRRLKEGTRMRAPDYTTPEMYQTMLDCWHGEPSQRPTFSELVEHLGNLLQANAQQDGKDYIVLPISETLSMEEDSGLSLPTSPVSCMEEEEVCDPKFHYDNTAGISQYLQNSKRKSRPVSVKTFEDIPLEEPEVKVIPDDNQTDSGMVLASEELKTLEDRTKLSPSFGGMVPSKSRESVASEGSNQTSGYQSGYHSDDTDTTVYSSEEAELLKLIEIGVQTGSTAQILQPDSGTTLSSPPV

SMILES | A. flavus Diameter of inhibition zone (mm) (A. flavus) | antimicrobial activity with A. flavus, in words (A. flavus) | A. flavus % Activity index (A. flavus) [%] | B. subtilis Diameter of inhibition zone (mm) (B. subtilis) | antimicrobial activity with B. subtilis, in words (B. subtilis) | B. subtilis % Activity index (B. subtilis) [%] | IC50 (HepG-2) [µM] | anti-proliferative activity against HepG-2, in words (HepG-2) | P. aeuroginosa Diameter of inhibition zone (mm) (P. aeuroginosa) | antimicrobial activity with P. aeuroginosa, in words (P. aeuroginosa) | P. aeuroginosa % Activity index (P. aeuroginosa) [%] | S. aureus Diameter of inhibition zone (mm) (S. aureus) | antimicrobial activity with S. aureus, in words (S. aureus) | S. aureus % Activity index (S. aureus) [%] | melting point [°C] | C. albicans Diameter of inhibition zone (mm) (C. albicans) | C. albicans % Activity index (C. albicans) [%] | IC50 (MCF-7) [µM] | E. coli Diameter of inhibition zone (mm) (E. coli) | E. coli % Activity index (E. coli) [%] | further results
N#Cc1c(-c2cccs2)cc(-c2ccc(O)cc2)nc1N [2a, 2-Amino-6-(4-hydroxyphenyl)-4-(thiophen-2-yl)nicotinonitrile] | 12 | moderate | 46.1 | 15 | strong | 68.2 | 8.42 ± 0.6 | very strong | 12 | strong | 63.1 | 10 | moderate | 55.5 | 260 | 18 | 64.3 | 9.59 ± 0.8 | 9 | 42.8 | IC50 (EGFR): 0.209 µM; IC50 (VEGFR-2): 0.195 µM; antimicrobial activity with C. albicans, in words (C. albicans): strong; anti-proliferative activity against MCF-7, in words (MCF-7): very strong; antimicrobial activity with E. coli, in words (E. coli): moderate
N#Cc1c(N)c2c(-c3cccs3)cc(-c3ccc(O)cc3)nc2[nH]c1=O [6a, 4-amino-7-(4-hydroxyphenyl)-2-oxo-5-(thiophen-2-yl)-1,2-dihydro-1,8-naphthyridine-3-carbonitrile] | 8 | – | 30.8 | 9 | – | 40.9 | 16.2 ± 1.3 | strong | 7 | – | 36.8 | 5 | – | 27.8 | 260 | 12 | 42.8 | 19.1 ± 1.6 | 4 | 19.0 | IC50 (EGFR): 0.326 µM; anti-proliferative activity against MCF-7, in words (MCF-7): strong
O=C(CNC(=S)n1nc(-c2ccc(Cl)c(Cl)c2)cc1-c1cccs1)c1ccccc1 [12b, 3-(3,4-dichlorophenyl)-N-(2-oxo-2-phenylethyl)-5-(thiophen-2-yl)-1H-pyrazole-1-carbothioamide] | 10 | – | 38.5 | 12 | – | 54.5 | 29.2 ± 2.1 | – | 8 | – | 42.1 | 7 | – | 38.9 | 160 | 15 | 53.6 | 36 ± 2.3 | 5 | 23.8 | –
Oc1ccc(-c2cc(-c3cccs3)nc(/N=C/c3ccccc3O)n2)cc1 [13a, (E)-2-(((4-(4-hydroxyphenyl)-6-(thiophen-2-yl)pyrimidin-2-yl)imino)methyl)phenol] | 16 | very strong | 61.5 | 18 | very strong | 81.8 | 34.8 ± 2.3 | – | 15 | very strong | 78.9 | 14 | very strong | 77.8 | 133 to 135 | 21 | 75.0 | 42.8 ± 2.6 | 13 | 61.9 | antimicrobial activity with C. albicans, in words (C. albicans): very strong; antimicrobial activity with E. coli, in words (E. coli): very strong
NS(=O)(=O)c1ccc(NC(=O)CN2N=C(c3ccc(O)cc3)CC2c2cccs2)cc1 (stereo not shown) [16a, 2-(3-(4-hydroxyphenyl)-5-(thiophen-2-yl)-4,5-dihydro-1H-pyrazol-1-yl)-N-(4-sulfamoylphenyl)acetamide] | 12 | moderate | 46.1 | 11 | moderate | 50.0 | 34.5 ± 2.2 | moderate | 11 | moderate | 57.9 | 8 | moderate | 44.4 | 158 to 160 | 15 | 53.6 | 29.1 ± 2 | 7 | 33.3 | antimicrobial activity with C. albicans, in words (C. albicans): moderate; anti-proliferative activity against MCF-7, in words (MCF-7): moderate; antimicrobial activity with E. coli, in words (E. coli): weak
CCOC(=O)CSC(=S)N1N=C(c2ccc(O)cc2)CC1c1cccs1 (stereo not shown) [17a, Ethyl 2-((3-(4-hydroxyphenyl)-5-(thiophen-2-yl)-4,5-dihydro-1H-pyrazole-1-carbonothioyl)thio)acetate] | 8 | weak | 30.8 | 11 | weak | 50.0 | 62.4 ± 3.3 | weak | 9 | weak | 47.4 | 6 | weak | 33.3 | 200 | 10 | 35.7 | 36.9 ± 2.2 | 7 | 33.3 | antimicrobial activity with C. albicans, in words (C. albicans): weak; anti-proliferative activity against MCF-7, in words (MCF-7): moderate; antimicrobial activity with E. coli, in words (E. coli): weak
O=C(O)CSC(=S)N1N=C(c2ccc(O)cc2)CC1c1cccs1 (stereo not shown) [19a, 2-((3-(4-Hydroxyphenyl)-5-(thiophen-2-yl)-4,5-dihydro-1H-pyrazole-1-carbonothioyl)thio)acetic acid] | 13 | moderate | 50.0 | 14 | moderate | 63.6 | 28.2 ± 1.9 | moderate | 12 | moderate | 63.1 | 10 | moderate | 55.5 | 223 to 225 | 16 | 57.1 | 14.7 ± 1.2 | 9 | 42.8 | antimicrobial activity with C. albicans, in words (C. albicans): moderate; anti-proliferative activity against MCF-7, in words (MCF-7): strong; antimicrobial activity with E. coli, in words (E. coli): moderate
O=C(CCl)SC(=S)N1N=C(c2ccc(O)cc2)CC1c1cccs1 (stereo not shown) [20a, 2-Chloroacetic-3-(4-hydroxyphenyl)-5-(thiophen-2-yl)-4,5-dihydro-1H-pyrazole-1-carbothioic thioanhydride] | 7 | weak | 26.9 | 6 | weak | 27.3 | 67.4 ± 3.5 | weak | 4 | weak | 21.0 | 3 | weak | 16.7 | 265 | 9 | 32.1 | 56.2 ± 3.3 | – | – | antimicrobial activity with C. albicans, in words (C. albicans): weak; anti-proliferative activity against MCF-7, in words (MCF-7): weak; antimicrobial activity with E. coli, in words (E. coli): weak
